According to patent US20260295038A1, “GLYCOLIPID DERIVATIVE AS MINCLE LIGAND” (priority 2023, published 2026):

Molecular target: T1, bovine Mincle (Bos taurus, UniProt E1BHM0)
T1 construct: mouse T-cell hybridoma with FcRgamma), plate assay
T1 sequence (E1BHM0 1-211): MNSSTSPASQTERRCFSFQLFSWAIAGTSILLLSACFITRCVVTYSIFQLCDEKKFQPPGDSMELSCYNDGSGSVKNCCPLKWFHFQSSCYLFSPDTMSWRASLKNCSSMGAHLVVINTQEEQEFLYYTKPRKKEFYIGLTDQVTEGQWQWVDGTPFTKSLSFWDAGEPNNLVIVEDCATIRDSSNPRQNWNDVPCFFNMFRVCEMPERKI
Assay: Mincle ligand activity, NFAT-GFP reporter cells expressing bovine Mincle (Experimental Example 1)
Assay type: cell-based
Details: 0.03 to 3 nmol, FIG. 1 right
Protocol: Similarly, using NFAT-GFP reporter cells expressing bovine Mincle, prepared according to the method described in a literature (Yamasaki, S. et al, Nat Immunol 9, 1179-88(2008)), the ligand activity of HD-276 was evaluated on a 96-well plate. The doses of the test compounds (horizontal axis) were 0.03 to 3 (nmol) from the left to right.

- Mincle ligand activity: confirmed to have Mincle ligand activity
Structure (SMILES): CCCCCCc1ccc(O[C@@H]2OC(C)[C@H](O)[C@H](OC)C2O[C@@H]2OC(C)[C@H](O[C@@H]3OC(COC)[C@@H](O)C(O)[C@@H]3O)[C@H](OC)C2OC)cc1 (stereo in doubt) [HD-276]
